Assay results: patent US20100317528A1, “HERBICIDE CONTAINING BENZOYLPYRAZOLE COMPOUND” (ISHIHARA SANGYO KAISHA, LTD., priority 2006, published 2010)

Tests used:
Format in all cases: in vivo
rice (Oryza sativa L.) [1] = assay: Test Example 1: foliar treatment, upland pot test, rice
Source text: (§1) Upland field soil was put into a 1/170,000 hectare pot, and seeds of various plants were sown. When the respective plants reached predetermined leaf stage ((1) barnyardgrass (Echinochloa crus-galli L.): 1.0 to 3.0 leaf stage, (2) crabgrass (Digitaria sanguinalis L.): 1.0 to 3.0 leaf stage, (3) green foxtail (Setaria viridis L.): 1.0 to 3.0 leaf stage, (4) redroot pigweed (Amaranthus retroflexus L.): cotyledon stage to 2.0 leaf stage, (5) prickly sida (Sida spinosa L.): cotyledon stage to 1.0 leaf stage, (6) velvetleaf (Abutilon theophrasti MEDIC.): 0.1 to 1.5 leaf stage, (7) rice (Oryza sativa L.): 1.0 to 3.0 leaf stage, (8) wheat (Triticum spp.): 1.7 to 3.4 leaf stage, (9) corn (Zea mays L.): 2.0 to 3.5 leaf stage, (10) soybean (Glycine max Merr.): primary leaf stage to 0.4 leaf stage), wettable powders or emulsifiable concentrates of the compounds of the above formula (I) prepared in accordance with a conventional preparation method, were weighed so that the active ingredients became the prescribed amounts, and diluted with water in an amount corresponding to 500 liter per 1 hectare (containing 0.1 vol % of “KUSARINOH”, manufactured by NIHON NOHYAKU CO., LTD. as an agricultural spreader). The spray solutions thus prepared were applied for foliar treatment by a small sprayer.
(§2) On the 17th to 25th day after application, the state of growth of the respective plants was visually observed, and the herbicidal effect was evaluated by a growth inhibition rate (%) of 0 (equivalent to the non-treated area) to 100% (complete kill).

[2] = tested on: prickly sida (Sida spinosa L.); assay: Test Example 1: foliar treatment, upland pot test, prickly sida; conditions: for Growth inhibition rate (%) Prickly sida: 31 g/ha active ingredient, observed 17th to 25th day after application
Source text: as §1, §2

[3] = tested on: crabgrass (Digitaria sanguinalis L.); assay: Test Example 1: foliar treatment, upland pot test, crabgrass
Source text: as §1, §2

wheat (Triticum spp.) = assay: Test Example 1: foliar treatment, upland pot test, wheat
Source text: as §1, §2

[4] = tested on: soybean (Glycine max Merr.); assay: Test Example 1: foliar treatment, upland pot test, soybean
Source text: as §1, §2

corn (Zea mays L.) [5] = assay: Test Example 1: foliar treatment, upland pot test, corn
Source text: as §1, §2

[6] = tested on: redroot pigweed (Amaranthus retroflexus L.); assay: Test Example 1: foliar treatment, upland pot test, redroot pigweed; conditions: for Growth inhibition rate (%) Redroot pigweed: 31 g/ha active ingredient, observed 17th to 25th day after application
Source text: as §1, §2

[7] = tested on: green foxtail (Setaria viridis L.); assay: Test Example 1: foliar treatment, upland pot test, green foxtail
Source text: as §1, §2

[8] = tested on: velvetleaf (Abutilon theophrasti MEDIC.); assay: Test Example 1: foliar treatment, upland pot test, velvetleaf
Source text: as §1, §2

[9] = tested on: barnyardgrass (Echinochloa crus-galli L.); assay: Test Example 1: foliar treatment, upland pot test, barnyardgrass
Source text: as §1, §2

[10] = tested on: barnyardgrass (Echinochloa crus-galli L.); assay: Test Example 2: soil application on the day after sowing, barnyardgrass; conditions: 250 g/ha active ingredient, observed 19th to 28th day after application
Source text: (§3) Upland field soil was put into a 1/170,000 hectare pot, and seeds of various plants barnyardgrass (Echinochloa crus-galli L.), crabgrass (Digitaria sanquinalis L.), green foxtail (Setaria viridis L.), redroot pigweed (Amaranthus retroflexus L.), prickly sida (Sida spinosa L.), velvetleaf (Abutilon theophrasti MEDIC.), rice (Oryza sativa L.), wheat (Triticum spp.), corn (Zea mays L.) and soybean (Glycine max Merr.)) were sown. On the day after sowing, wettable powders or emulsifiable concentrates of the compounds of the above formula (I) prepared in accordance with a conventional preparation method, were weighed so that the active ingredients became the prescribed amounts, and diluted with water in an amount corresponding to 500 liter per 1 hectare, followed by soil application with a small sprayer.
(§4) On the 19th to 28th day after the application, the state of growth of the respective plants was visually observed, and the herbicidal effect was evaluated by a growth inhibition rate (%) of from 0 (equivalent to the non-treated area) to 100% (complete kill).

rice (Oryza sativa L.) [11] = assay: Test Example 2: soil application on the day after sowing, rice; conditions: 250 g/ha active ingredient, observed 19th to 28th day after application
Source text: as §3, §4

[12] = tested on: velvetleaf (Abutilon theophrasti MEDIC.); assay: Test Example 2: soil application on the day after sowing, velvetleaf; conditions: 250 g/ha active ingredient, observed 19th to 28th day after application
Source text: as §3, §4

[13] = tested on: prickly sida (Sida spinosa L.); assay: Test Example 2: soil application on the day after sowing, prickly sida; conditions: 250 g/ha active ingredient, observed 19th to 28th day after application
Source text: as §3, §4

[14] = tested on: soybean (Glycine max Merr.); assay: Test Example 2: soil application on the day after sowing, soybean; conditions: 250 g/ha active ingredient, observed 19th to 28th day after application
Source text: as §3, §4

[15] = tested on: green foxtail (Setaria viridis L.); assay: Test Example 2: soil application on the day after sowing, green foxtail; conditions: 250 g/ha active ingredient, observed 19th to 28th day after application
Source text: as §3, §4

corn (Zea mays L.) [16] = assay: Test Example 2: soil application on the day after sowing, corn; conditions: 250 g/ha active ingredient, observed 19th to 28th day after application
Source text: as §3, §4

[17] = tested on: crabgrass (Digitaria sanquinalis L.); assay: Test Example 2: soil application on the day after sowing, crabgrass; conditions: 250 g/ha active ingredient, observed 19th to 28th day after application
Source text: as §3, §4

[18] = tested on: redroot pigweed (Amaranthus retroflexus L.); assay: Test Example 2: soil application on the day after sowing, redroot pigweed; conditions: 250 g/ha active ingredient, observed 19th to 28th day after application
Source text: as §3, §4

[19] = 31 g/ha active ingredient, observed 17th to 25th day after application

| Structure (SMILES) | Growth inhibition rate (%) Rice (rice (Oryza sativa L.) [1]; [19]) [%] | Growth inhibition rate (%) Prickly sida [2] [%] | Growth inhibition rate (%) Barnyardgrass [10] [%] | Growth inhibition rate (%) Rice (rice (Oryza sativa L.) [11]) [%] | Growth inhibition rate (%) Velvetleaf [12] [%] | Growth inhibition rate (%) Crabgrass [3, 19] [%] | Growth inhibition rate (%) Prickly sida [13] [%] | Growth inhibition rate (%) Soybean [4, 19] [%] | Growth inhibition rate (%) Corn (corn (Zea mays L.) [5]; [19]) [%] | Growth inhibition rate (%) Soybean [14] [%] | Growth inhibition rate (%) Redroot pigweed [6] [%] | Growth inhibition rate (%) Green foxtail [7, 19] [%] | Growth inhibition rate (%) Velvetleaf [8, 19] [%] | Growth inhibition rate (%) Green foxtail [15] [%] | Growth inhibition rate (%) Corn (corn (Zea mays L.) [16]) [%] | Growth inhibition rate (%) Crabgrass [17] [%] | Growth inhibition rate (%) Redroot pigweed [18] [%] | Growth inhibition rate (%) Barnyardgrass [9, 19] [%] | also measured |
| --- | --- | --- | --- | --- | --- | --- | --- | --- | --- | --- | --- | --- | --- | --- | --- | --- | --- | --- | --- |
| CCn1ncc(C(=O)c2ccc(S(C)(=O)=O)c(OCC3OCCO3)c2Cl)c1O [compound 250] | – | – | – | – | – | – | – | – | – | – | – | – | – | – | – | – | – | – | inhibition at 63 g/ha (rice (Oryza sativa L.) [1]; Oryza sativa, 63 g/ha active ingredient, observed 21st day after application, read-out: Growth inhibition rate (%) Rice): 0%; inhibition at 63 g/ha ([2]; Sida spinosa, 63 g/ha active ingredient, observed 21st day after application, read-out: Growth inhibition rate (%) Prickly sida): 60%; inhibition at 63 g/ha ([3]; Digitaria sanguinalis, 63 g/ha active ingredient, observed 21st day after application, read-out: Growth inhibition rate (%) Crabgrass): 98%; inhibition at 63 g/ha (wheat (Triticum spp.); Triticum, 63 g/ha active ingredient, observed 21st day after application, read-out: Growth inhibition rate (%) Wheat): 0%; inhibition at 63 g/ha ([4]; Glycine max, 63 g/ha active ingredient, observed 21st day after application, read-out: Growth inhibition rate (%) Soybean): 90%; inhibition at 63 g/ha (corn (Zea mays L.) [5]; Zea mays, 63 g/ha active ingredient, observed 21st day after application, read-out: Growth inhibition rate (%) Corn): 10%; inhibition at 63 g/ha ([6]; Amaranthus retroflexus, 63 g/ha active ingredient, observed 21st day after application, read-out: Growth inhibition rate (%) Redroot pigweed): 100%; inhibition at 63 g/ha ([7]; Setaria viridis, 63 g/ha active ingredient, observed 21st day after application, read-out: Growth inhibition rate (%) Green foxtail): 80%; inhibition at 63 g/ha ([8]; Abutilon theophrasti, 63 g/ha active ingredient, observed 21st day after application, read-out: Growth inhibition rate (%) Velvetleaf): 95%; inhibition at 63 g/ha ([9]; Echinochloa crus-galli, 63 g/ha active ingredient, observed 21st day after application, read-out: Growth inhibition rate (%) Barnyardgrass): 100% |
| COCC(C)Oc1c(S(C)(=O)=O)ccc(C(=O)c2cnn(C)c2O)c1C (stereo not shown) [compound 254] | 40 | 40 | 100 | 75 | 50 | 50 | 60 | 80 | 0 | 0 | 95 | 50 | 80 | 10 | 0 | 98 | 100 | 40 | Growth inhibition rate (%) Wheat (wheat (Triticum spp.); [19]): 0% |
| Cc1c(C(=O)c2cnn(C)c2O)ccc(S(C)(=O)=O)c1COC(C)C [compound 257] | 90 | 75 | 90 | 90 | 80 | 90 | 70 | 70 | 0 | 0 | 85 | 98 | 98 | 60 | 0 | 100 | 98 | 100 | – |
| Cc1c(C(=O)c2cnn(C)c2O)ccc(S(C)(=O)=O)c1CC1OCCO1 [compound 256] | – | – | – | – | – | – | – | – | – | – | – | – | – | – | – | – | – | – | inhibition at 31 g/ha (rice (Oryza sativa L.) [1]; Oryza sativa, 31 g/ha active ingredient, observed 17th to 25th day after application, read-out: Growth inhibition rate (%) Rice): 60%; inhibition at 250 g/ha ([10]; Echinochloa crus-galli, read-out: Growth inhibition rate (%) Barnyardgrass): 100%; inhibition at 250 g/ha (rice (Oryza sativa L.) [11]; Oryza sativa, read-out: Growth inhibition rate (%) Rice): 80%; inhibition at 250 g/ha ([12]; Abutilon theophrasti, read-out: Growth inhibition rate (%) Velvetleaf): 80%; inhibition at 31 g/ha ([3]; Digitaria sanguinalis, 31 g/ha active ingredient, observed 17th to 25th day after application, read-out: Growth inhibition rate (%) Crabgrass): 90%; inhibition at 250 g/ha ([13]; Sida spinosa, read-out: Growth inhibition rate (%) Prickly sida): 60%; inhibition at 31 g/ha ([4]; Glycine max, 31 g/ha active ingredient, observed 17th to 25th day after application, read-out: Growth inhibition rate (%) Soybean): 80%; inhibition at 31 g/ha (corn (Zea mays L.) [5]; Zea mays, 31 g/ha active ingredient, observed 17th to 25th day after application, read-out: Growth inhibition rate (%) Corn): 0%; inhibition at 31 g/ha ([7]; Setaria viridis, 31 g/ha active ingredient, observed 17th to 25th day after application, read-out: Growth inhibition rate (%) Green foxtail): 70%; inhibition at 31 g/ha ([8]; Abutilon theophrasti, 31 g/ha active ingredient, observed 17th to 25th day after application, read-out: Growth inhibition rate (%) Velvetleaf): 100%; inhibition at 250 g/ha ([15]; Setaria viridis, read-out: Growth inhibition rate (%) Green foxtail): 95%; inhibition at 250 g/ha (corn (Zea mays L.) [16]; Zea mays, read-out: Growth inhibition rate (%) Corn): 0%; inhibition at 250 g/ha ([17]; Digitaria, read-out: Growth inhibition rate (%) Crabgrass): 100%; inhibition at 31 g/ha ([9]; Echinochloa crus-galli, 31 g/ha active ingredient, observed 17th to 25th day after application, read-out: Growth inhibition rate (%) Barnyardgrass): 100% |
| Cc1c(C(=O)c2cnn(C)c2O)ccc(S(C)(=O)=O)c1COCC(F)(F)F [compound 160] | 50 | 60 | 100 | 100 | 100 | 100 | 95 | 98 | 0 | 50 | 98 | 75 | 100 | 100 | 0 | 100 | 100 | 90 | – |
| COC(C)COc1c(S(C)(=O)=O)ccc(C(=O)c2cnn(C)c2O)c1C (stereo not shown) [compound 227] | 80 | 90 | 100 | 100 | 100 | 60 | 98 | 100 | 0 | 10 | 100 | 98 | 100 | 100 | 0 | 100 | 100 | 95 | – |
